5 molecules from publication PMC7558026, “Exploring and applying the substrate promiscuity of a C-glycosyltransferase in the chemo-enzymatic synthesis of bioactive C-glycosides” (Nature Communications, 2020) can be followed below.

Series [1] deals with T1, SGLT2 (Homo sapiens, UniProt P31639).
T1 construct: Human full-length SGLT2 cDNA (NM_003041.3) was synthesized; expressed in transfected cells; host or cells: HEK293, retroviral transduction with pMSCVpuro-SGLT2, puromycin selected
T1 sequence (P31639 1-672): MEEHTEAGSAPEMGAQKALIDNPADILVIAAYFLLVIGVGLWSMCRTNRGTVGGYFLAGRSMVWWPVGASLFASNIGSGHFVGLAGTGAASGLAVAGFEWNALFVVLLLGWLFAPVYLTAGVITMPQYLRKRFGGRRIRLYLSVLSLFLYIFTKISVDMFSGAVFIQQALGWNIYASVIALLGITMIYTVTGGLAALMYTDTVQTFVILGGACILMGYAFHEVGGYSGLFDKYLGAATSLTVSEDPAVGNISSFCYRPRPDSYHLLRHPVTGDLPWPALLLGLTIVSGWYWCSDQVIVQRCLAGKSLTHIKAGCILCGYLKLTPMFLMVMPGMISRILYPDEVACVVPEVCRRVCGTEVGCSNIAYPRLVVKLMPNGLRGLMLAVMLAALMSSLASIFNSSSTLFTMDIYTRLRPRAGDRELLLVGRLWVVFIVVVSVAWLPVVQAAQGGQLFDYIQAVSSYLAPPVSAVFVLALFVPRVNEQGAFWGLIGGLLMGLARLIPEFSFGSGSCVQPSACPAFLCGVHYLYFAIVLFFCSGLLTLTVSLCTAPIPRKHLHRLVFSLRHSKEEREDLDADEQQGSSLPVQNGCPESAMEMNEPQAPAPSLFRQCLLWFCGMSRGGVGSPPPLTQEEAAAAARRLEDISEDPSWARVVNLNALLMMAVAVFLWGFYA
The experiment in a line: 1-NBDG uptake in HEK293 cells stably expressing SGLT2. In kind it is cell-based. To be noted: triplicate; for inhibition at 10 µM: HEK293, compound at 10 μM, read-out: SGLT2 inhibitory rates; for SGLT2 inhibitory rates: compound at 10 μM, 10 µM.

The target in series [2] is T2, SGLT1 (Homo sapiens, UniProt P13866).
T2 construct: The full-length SGLT1 cDNA was obtained by PCR with forward primer; expressed in transfected cells
T2 sequence (P13866 1-664): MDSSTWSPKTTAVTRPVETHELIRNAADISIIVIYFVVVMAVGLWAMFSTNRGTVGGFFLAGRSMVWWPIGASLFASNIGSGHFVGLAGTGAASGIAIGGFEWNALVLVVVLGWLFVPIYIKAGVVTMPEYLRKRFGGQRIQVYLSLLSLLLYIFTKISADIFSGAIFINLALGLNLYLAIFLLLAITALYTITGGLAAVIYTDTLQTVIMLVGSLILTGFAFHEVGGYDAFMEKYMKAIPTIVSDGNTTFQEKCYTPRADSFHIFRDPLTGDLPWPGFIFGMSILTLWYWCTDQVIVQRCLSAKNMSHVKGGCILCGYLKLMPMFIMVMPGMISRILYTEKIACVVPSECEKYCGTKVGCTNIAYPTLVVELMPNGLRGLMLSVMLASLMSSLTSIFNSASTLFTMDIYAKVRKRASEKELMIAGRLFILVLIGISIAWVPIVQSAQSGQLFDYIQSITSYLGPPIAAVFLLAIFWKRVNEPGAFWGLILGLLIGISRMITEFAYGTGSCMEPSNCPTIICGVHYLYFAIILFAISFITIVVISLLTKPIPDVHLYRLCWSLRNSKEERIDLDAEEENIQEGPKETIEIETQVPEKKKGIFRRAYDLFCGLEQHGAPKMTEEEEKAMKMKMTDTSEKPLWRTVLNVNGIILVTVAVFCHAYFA
The experiment in a line: 1-NBDG uptake in HEK293 cells stably expressing SGLT1. In kind it is cell-based. To be noted: HEK293, compound at 10 μM; triplicate; read-out: SGLT1 inhibitory rates.

Series [3] deals with Influenza A/WSN/33 (H1N1). The experiment in a line: microbe, parasite or virus in culture. In kind it is cell-based. The note with it: read-out: Inhibitory Rates, anti-influenza A virus activity.
Series [4] concerns KKAy mice. The experiment in a line: Hypoglycemic effect in T2DM KKAy mice, blood glucose. In kind it is in vivo. The note with it: individual mice. The protocol: (§1) To evaluate the hypoglycemic effect of 46a in type 2 diabetes mellitus (T2DM), female KKAy mice weighing 42–48 g were obtained from the Animal Center of the Institute of Laboratory Animal Sciences, Chinese Academy of Medical Sciences and Peking Union Medical College. […] Blood samples were collected at 1, 2, 4, 6, 8, 24, and 48 h after treatment. […] The glucose levels in urine 4 h and 6 h after administration were also determined using a Biosen C-Line Glucose analyzer (EKF Diagnostics, Germany).

Series [5] deals with ICR mice. The experiment in a line: Oral glucose-tolerance test (OGTT) in normal ICR mice. In kind it is in vivo. To be noted: individual mice. The method, then: The hypoglycemic effect of 46a was firstly evaluated by oral glucose-tolerance test (OGTT) in mice with normal blood glucose levels. Male Institute of Cancer Research (ICR) mice weighing 24–26 g were obtained from Beijing Vital River Laboratory Animal Technology Co., Ltd (Beijing, China) and divided into three groups (n = 7–8). […] After 2 h of fasting, blood samples were collected from the tails for determination of baseline values of blood glucose (0 min). The mice were then orally administered glucose (2 g kg^‒1 BW), and blood samples were collected at 15, 30, 60, and 120 min. A glucose oxidase (GOD) assay was used for blood glucose-level measurement. The values of area under the glucose-time curve (AUC) were calculated.

Series [6] has as its system alloxan-induced DM mice. Description: Hypoglycemic effect in alloxan-induced diabetic mellitus (DM) mice. In kind it is in vivo. To be noted: individual mice. The protocol:
Type 1 diabetes mellitus (T1DM) mice were established by intravenous injection of alloxan tetrahydrate (68 mg kg^‒1 BW). […] Nonfasting blood glucose was kinetically monitored at 1, 2, 4, 6, 8, 24, and 48 h after treatment with 46a.

For series [7], the system named is KKAy mice. Description: Urinary glucose excretion in T2DM KKAy mice. In kind it is in vivo. The note with it: 46a 100 mg kg^‒1 or dapagliflozin 5mg/kg, individual mice. The method, then: as §1
Substrate in series [8]: O=C1C[C@@](O)(c2ccc(O)cc2)Oc2cc(O)cc(O)c21
Description: Kinetic parameters of AbCGT variant V183E. In kind it is biochemical, Aloe barbadensis. To be noted: other: V183E, UDP-Glc as donor; pH 7.4; 30.0 °C. The method, then:
(§2) Assays were performed in a final volume of 100 μL 50 mM Tris-HCl (pH 7.4) at 30 °C, and contained purified recombinant AbCGT (1.5 μg) and saturating UDP-Glc (5 mM) while varying phloracetophene (11) and phloretin (17) concentrations (5–500 μM), respectively. The reactions terminated by the addition of 200 μL of ice-cold methanol. Subsequently, samples were centrifuged at 15,000 × g for 30 min to collect the supernatant, and aliquots were analyzed by HPLC as described above. All experiments were performed in triplicate. The value of Km was calculated with the method of Lineweaver–Burk plot.
(§3) Site-saturation mutagenesis of AbCGT at residue 183 was performed by PCR using pET28a-AbCGT as a template and the corresponding degenerate primers, which are listed in Supplementary Table 5. PCR products were purified and transformed into Trans1-T1 (DE3) E. coli. The sequences of pET28a-AbCGT mutants were confirmed by sequencing, and transformed into Transetta (DE3) E. coli for heterologous expression following protein purification.

Substrate in series [9]: O=C1C[C@@](O)(c2ccc(O)cc2)Oc2cc(O)cc(O)c21
Description: Kinetic parameters of AbCGT variant V183D. The note with it: other: V183D, UDP-Glc as donor; pH 7.4; 30.0 °C. In kind it is biochemical, Aloe barbadensis. The method, then:
as §2, §3

One may read the Km as the substrate concentration at which the rate is half of its maximum. For orientation: kcat/Km means the turnover number divided by the Michaelis constant.

Where a chain is given by its changes, count along the chain named. Numbers in names are those of the source. Where “and” joins values, the source holds several entries; their conditions need not be identical. Identical values can stand only once.

For the molecule `OCC1OC(c2c(O)cc(O)c(Cc3ccc4nccnc4c3)c2O)C(O)C(O)C1O` (stereo not shown) [Compound 44a], in [1], the inhibition at 10 µM was over 96% and the SGLT2 inhibitory rates stood at 96.6%. For the same molecule, in series [2], the inhibition at 10 µM is 31.8%. Besides, the inhibition at 20 µM in [3] (final concentration 20 μM, — = no inhibition activity) came to 82.8%.

On to `CCOc1ccc(Cc2cc([C@@H]3O[C@H](CO)[C@@H](O)[C@H](O)[C@H]3O)ccc2Cl)cc1` [Dapagliflozin, reference compound], for which the blood glucose in [4] (0h, KKAy mice, single dose 46a 100 mg kg^‒1 or dapagliflozin 5 mg kg^‒1) is 376.7 mg/dL and 390 mg/dL and 405.5 mg/dL and 293.3 mg/dL and 575.6 mg/dL and 463.6 mg/dL and 388.1 mg/dL; in series [4] (1h, same doses), 205.5 mg/dL and 228.8 mg/dL and 391.4 mg/dL and 363.9 mg/dL and 193.8 mg/dL and 248.6 mg/dL and 235.8 mg/dL; in [4] (2h, same doses), 279.3 mg/dL and 221.6 mg/dL and 285.4 mg/dL and 256 mg/dL and 184.4 mg/dL and 245.5 mg/dL and 256.8 mg/dL; in series [4] (4h, same doses), 138 mg/dL and 102 mg/dL and 48.9 mg/dL and 98.1 mg/dL and 137.3 mg/dL and 182.3 mg/dL and 181.7 mg/dL; in series [4] (6h, same doses), 123.1 mg/dL and 172.3 mg/dL and 164.6 mg/dL and 79.8 mg/dL and 177.1 mg/dL and 134.4 mg/dL; in series [4] (8h, same doses), 91.6 mg/dL and 196.3 mg/dL and 150.5 mg/dL and 208.1 mg/dL and 124.9 mg/dL and 86.9 mg/dL. Further, the blood glucose in series [4] (24h, same doses) is 254.9 mg/dL and 217.5 mg/dL and 176.2 mg/dL and 237.1 mg/dL and 286.9 mg/dL and 219.8 mg/dL; in series [4] (48h, same doses), 395.7 mg/dL and 347.1 mg/dL and 229.8 mg/dL and 332.5 mg/dL and 388.1 mg/dL and 274.9 mg/dL. The inhibition at 10 µM turned out to be 100% in series [1] and 98.4% in series [2]. Besides, the SGLT2 inhibitory rates in series [1] is reported as 102.4%. Further, the “OD505nm (blood glucose, GOD assay) in OGTT” value is 0.188 and 0.144 and 0.165 and 0.159 and 0.17 and 0.15 and 0.177 and 0.146 in series [5] (0 min, ICR mice, oral 46a 100 mg kg^‒1 or dapagliflozin 5 mg kg^‒1); 0.243 and 0.23 and 0.198 and 0.207 and 0.185 and 0.182 and 0.211 and 0.199 in [5] (15 min after glucose 2 g kg^‒1, oral 46a 100 mg kg^‒1 or dapagliflozin 5 mg kg^‒1); 0.2 (2×) and 0.22 and 0.193 and 0.178 and 0.196 and 0.205 and 0.204 in series [5] (30 min after glucose, same doses); 0.209 and 0.178 and 0.176 and 0.169 and 0.175 and 0.171 and 0.182 and 0.185 in [5] (60 min after glucose, same doses); 0.173 and 0.17 and 0.162 and 0.165 (2×) and 0.166 and 0.157 and 0.167 in series [5] (120 min after glucose, same doses). In addition, the “OD505nm (nonfasting blood glucose)” value in [6] (0h, alloxan-induced DM mice, single dose 46a 100 mg kg^‒1 or dapagliflozin 5 mg kg^‒1) was 0.567 and 0.574 and 0.561 and 0.564 and 0.434 and 0.496 and 0.426 and 0.589; in [6] (1h, same doses) it was 0.393 and 0.333 and 0.301 and 0.52 and 0.314 and 0.35 and 0.222 and 0.29; in series [6] (2h, same doses) it was 0.27 and 0.388 and 0.281 and 0.364 and 0.279 and 0.346 and 0.193 and 0.231; in [6] (4h, same doses) it was 0.352 and 0.41 and 0.322 and 0.471 and 0.197 and 0.266 and 0.208 and 0.227; in [6] (8h, same doses), 0.347 and 0.446 and 0.312 and 0.421 and 0.195 and 0.25 and 0.231 and 0.327; in series [6] (24h, same doses), 0.536 and 0.578 and 0.561 and 0.735 and 0.409 and 0.563 and 0.408 and 0.501. Also, in series [6] (48h, same doses), the “OD505nm (nonfasting blood glucose)” value is 0.513 and 0.594 and 0.579 and 0.796 and 0.531 and 0.647 and 0.477 and 0.584. The glucose in urine is 13936 mg/dL and 9326 mg/dL and 12440 mg/dL and 15728 mg/dL in series [7] (4h); 15122 mg/dL and 8208 mg/dL and 11640 mg/dL and 11138 mg/dL in series [7] (6h).

`NC(=O)c1ncn([C@@H]2O[C@H](CO)[C@@H](O)[C@H]2O)n1` [Ribavirin, reference compound]: the inhibition at 30 µM in [3] (ribavirin (positive control) at 30 μM) worked out at 85.6%.

B1: AbCGT V183E (Aloe vera; V183E) (protein)
chain: MSNSGRPHVALLPSAGMGHLTPFCRLAALLSSRGGGDLDVSFITAEPTVSLKEYLQIRDLLSSFPSIKSHRFKVPELSPSQFPSSPDPFFQQWESIRRCAHLLPPLLASATALIIDTASASAVLPVAKQLNIPAYILFTSSASMLSLVAHFPSHVISSTSPSAPLMSNILIPGLKHPVPAAWEPPPLHVPGHIFSTLTVDNGRCLPEADGVIINTFDALEPEVLAALNGGRVAHGLPRVFAVGPLVAPPPPQQMEETGGGDYPIAWLDRQRDKSVVYVSFGSRTAMSPEQIRELAAGLERSGCSFLWVIKTKKVDRDEEETDLGALLGEGYVERVKGRGLVVNGWVEQEEILRHRAVGGFVSHCGWNSVTEAAVAGVRVLCWPRMGDQRLNAEVVRRSGVGVWMEEWSWEAEGGVVGGEEIGRRVKEMMEDEGLRDSAERVAEEARVALGVGGTSSKEMEEFISRIMMGS
Regarding B1, in series [8], the Km is 325.4 ± 19.2 µM and the kcat/Km amounted to 2.09 min⁻¹ M⁻¹.

B2: AbCGT V183D (Aloe vera; V183D) (protein)
chain: B1 chain with E183D
Turning to B2, in series [9], the Km turned out to be 209.3 ± 14.3 µM and the kcat/Km came out at 1.70 min⁻¹ M⁻¹.
